# Experimental data from patent US9708306B2, “Benzimidazole derivatives and preparation process and pharmaceutical uses thereof” (WUHAN LL SCIENCE AND TECHNOLOGY DEVELOPMENT CO., LTD, priority 2015, dated 2017).
# “And” between values parts separate entries of the source, which are not always exact repeats. Equal entries are not always repeated. Where two headings read alike, the source gives them in different places.
# Assays:
# [1] = system: renovascular hypertensive rats; experiment: Effect on reducing blood pressure of renovascular hypertensive rats by single oral administration; type: in vivo, Wistar rats; details: for change in vivo at 0.5 mg/kg / inhibition in vivo at 0.5 mg/kg / change in vivo at 1 mg/kg / inhibition in vivo at 1 mg/kg / change in vivo at 2 mg/kg / inhibition in vivo at 2 mg/kg: Rattus norvegicus, single oral administration; for change in vivo at 0.5 mg/kg / change in vivo at 1 mg/kg / change in vivo at 2 mg/kg: RHR, read-out: Variations on heart rate; for inhibition in vivo at 0.5 mg/kg / inhibition in vivo at 1 mg/kg / inhibition in vivo at 2 mg/kg: two-kidney one-clip RHR, measured 1-10 h, read-out: Maximum blood pressure reduction
# [2] = system: spontaneously hypertensive rats (SHR); experiment: Effect on reducing blood pressure of spontaneously hypertensive rats (SHR) by multiple oral administrations; type: in vivo; details: for inhibition in vivo at 0.5 mg/kg / inhibition in vivo at 1 mg/kg / inhibition in vivo at 2 mg/kg: Rattus norvegicus; for inhibition in vivo at 0.5 mg/kg / inhibition in vivo at 1 mg/kg / inhibition in vivo at 2 mg/kg / blood pressure reduction effect compared with Azilsartan medoxomil: SHR
# [3] = system: normal rats; experiment: Effect on blood pressure of normal rats by single oral administration; type: in vivo, Wistar rats; details: for inhibition in vivo at 0.5 mg/kg / inhibition in vivo at 1 mg/kg / inhibition in vivo at 2 mg/kg / change in vivo at 0.5 mg/kg / change in vivo at 1 mg/kg / change in vivo at 2 mg/kg: Rattus norvegicus, po, single, normal rats; for inhibition in vivo at 0.5 mg/kg / inhibition in vivo at 1 mg/kg / inhibition in vivo at 2 mg/kg: 8 h, read-out: blood pressure reduction at 8 h after the administration; for inhibition in vivo at 0.5 mg/kg / change in vivo at 0.5 mg/kg: 0.5 mg/kg p.o.; for inhibition in vivo at 1 mg/kg / change in vivo at 1 mg/kg: 1.0 mg/kg p.o.; for inhibition in vivo at 2 mg/kg / change in vivo at 2 mg/kg: 2.0 mg/kg p.o.; for change in vivo at 0.5 mg/kg / change in vivo at 1 mg/kg / change in vivo at 2 mg/kg: read-out: variations on heart rate
# [4] = renal artery-ligated rat, 24 hours after the administration, dose not stated
# [5] = renal artery-ligated rat, result in words
# [6] = 0.5 mg/kg oral once per day, 1 hour after the administration, read-out: Maximum blood pressure reduction, 1st-day administration
# [7] = 0.5 mg/kg oral once per day, 1 hour after the administration, read-out: Maximum blood pressure reduction, 7th-day administration
# [8] = 0.5 mg/kg oral once per day, 1 hour after the administration, read-out: Maximum blood pressure reduction, 14th-day administration
# [9] = 0.5 mg/kg oral, read-out: Heart Rate (effect on reducing heart rate)
# [10] = 1.0 mg/kg oral once per day, 1 hour after the administration, read-out: Maximum blood pressure reduction, 1st-day administration
# [11] = 1.0 mg/kg oral once per day, 1 hour after the administration, read-out: Maximum blood pressure reduction, 7th-day administration
# [12] = 1.0 mg/kg oral once per day, 1 hour after the administration, read-out: Maximum blood pressure reduction, 14th-day administration
# [13] = 1.0 mg/kg oral, read-out: Heart Rate (effect on reducing heart rate)
# [14] = 2.0 mg/kg oral once per day, 1 hour after the administration, read-out: Maximum blood pressure reduction, 1st-day administration
# [15] = 2.0 mg/kg oral once per day, 1 hour after the administration, read-out: Maximum blood pressure reduction, 7th-day administration
# [16] = 2.0 mg/kg oral once per day, 1 hour after the administration, read-out: Maximum blood pressure reduction, 14th-day administration
# [17] = 2.0 mg/kg oral, read-out: Heart Rate (effect on reducing heart rate)
# [18] = during the whole administration, result in words
Compound,change in vivo at 0.5 mg/kg [1],inhibition in vivo at 0.5 mg/kg [1],change in vivo at 1 mg/kg [1],inhibition in vivo at 1 mg/kg [1],change in vivo at 2 mg/kg [1],inhibition in vivo at 2 mg/kg [1],"inhibition in vivo at 0.5 mg/kg [2, 6]","inhibition in vivo at 0.5 mg/kg [2, 7]","inhibition in vivo at 0.5 mg/kg [2, 8]","inhibition in vivo at 1 mg/kg [2, 10]","inhibition in vivo at 1 mg/kg [2, 11]","inhibition in vivo at 1 mg/kg [2, 12]","inhibition in vivo at 2 mg/kg [2, 14]","inhibition in vivo at 2 mg/kg [2, 15]","inhibition in vivo at 2 mg/kg [2, 16]",inhibition in vivo at 0.5 mg/kg [3],inhibition in vivo at 1 mg/kg [3],inhibition in vivo at 2 mg/kg [3],change in vivo at 0.5 mg/kg [3],change in vivo at 1 mg/kg [3],also measured
CCOc1nc2cccc(C(=O)OCc3c(-c4ccccc4)no[n+]3[O-])c2n1Cc1ccc(-c2ccccc2-c2noc(=O)[nH]2)cc1 [QR01009],-12 ± 4%,22 ± 2.8%,-25 ± 5%,36 ± 3.2%,-28 ± 8%,43 ± 6.7%,24 ± 6.8%,28 ± 5.3%,25 ± 4.9%,42 ± 6.3%,41 ± 5.9%,45 ± 6.7%,45 ± 5.6%,48 ± 4.6%,43 ± 7.2%,3.1 ± 2.4%,5.6 ± 1.9%,4.8 ± 5.8%,-5 ± 2%,4%,"blood pressure reduction at 24 hours after the administration [1, 4]: 25%; blood pressure reduction effect compared with Azilsartan medoxomil [1, 5]: obviously superior to that of the Azilsartan medoxomil positive drug; lasting time of the blood pressure reduction effect compared with Azilsartan medoxomil [1, 5]: close to that of Azilsartan medoxomil; inhibition in vivo at 0.5 mg/kg [2, 9]: 23 ± 3%; inhibition in vivo at 1 mg/kg [2, 13]: 24 ± 2%; inhibition in vivo at 2 mg/kg [2, 17]: 27 ± 5%; blood pressure reduction effect compared with Azilsartan medoxomil ([2]; result in words): obviously superior to that of the Azilsartan medoxomil positive drug; reduction effects on the heart rate of SHR rats [2, 18]: significant reduction effects on the heart rate; change in vivo at 2 mg/kg [3]: -8 ± 5%"
CCOc1nc2cccc(C(=O)OCc3oc(=S)oc3C)c2n1Cc1ccc(-c2ccccc2-c2noc(=O)[nH]2)cc1 [QR01013],-6 ± 4%,16 ± 3%,-8 ± 3%,25 ± 4.5%,-10 ± 5%,34 ± 7.1%,14 ± 5.9%,15 ± 7.1%,17 ± 5.8%,24 ± 5.8%,28 ± 6%,27 ± 6.4%,34 ± 5.9%,38 ± 5.7%,39 ± 7.1%,4.2 ± 2.7%,6.2 ± 2.3%,3.4 ± 4.2%,-3 ± 4%,5%,change in vivo at 2 mg/kg [3]: -5 ± 4%
CCOc1nc2cccc(C(=O)OCOC(=O)OCc3nc(C)c(C)nc3C)c2n1Cc1ccc(-c2ccccc2-c2noc(=O)[nH]2)cc1 [QR01017],–,–,–,–,–,–,–,–,–,–,–,–,–,–,–,–,–,–,–,–,"Maximum blood pressure reduction ([1]; rat, in vivo): 25 ± 6.2% and 38 ± 3.5% and 46 ± 2.6%; blood pressure reduction at 24 hours after the administration ([1]; rat, in vivo): 20%; blood pressure reduction effect compared with Azilsartan medoxomil ([1]; rat, in vivo): obviously superior to that of the Azilsartan medoxomil positive drug; lasting time of the blood pressure reduction effect compared with Azilsartan medoxomil ([1]; rat, in vivo): close to that of Azilsartan medoxomil; Heart Rate (effect on reducing heart rate) ([2]; rat, in vivo): 18 ± 5% and 24 ± 4% and 29 ± 6%; Maximum blood pressure reduction, 1st-day administration ([2]; rat, in vivo): 22 ± 5.0% and 34 ± 4.4% and 36 ± 4.5%; Maximum blood pressure reduction, 7th-day administration ([2]; rat, in vivo): 22 ± 3.3% and 35 ± 3.9% and 38 ± 2.1%; Maximum blood pressure reduction, 14th-day administration ([2]; rat, in vivo): 23 ± 3.9% and 36 ± 3.2% and 38 ± 3.6%; reduction effects on the heart rate of SHR rats ([2]; rat, in vivo): significant reduction effects on the heart rate; Variations on heart rate ([3]; rat, in vivo): −5 ± 2% and −2 ± 4% and −4 ± 3%; blood pressure reduction at 8 h after the administration ([3]; rat, in vivo): 2.9 ± 4.5% and 3.3 ± 4.1% and 5.1 ± 3.2%"
CCOc1nc2cccc(C(=O)OC(C)OC(=O)OCc3nc(C)c(C)nc3C)c2n1Cc1ccc(-c2ccccc2-c2noc(=O)[nH]2)cc1 (stereo not drawn) [QR01019],12 ± 4%,24 ± 4%,25 ± 8%,38 ± 3.8%,28 ± 6%,45 ± 7.5%,16 ± 6.2%,15 ± 7.9%,18 ± 4.5%,36 ± 6.3%,38 ± 4.6%,35 ± 6.7%,42 ± 4.8%,46 ± 6.7%,48 ± 8.6%,2.4 ± 3%,4.2 ± 3.5%,4.5 ± 6.5%,-5 ± 5%,-4 ± 6%,"blood pressure reduction at 24 hours after the administration [1, 4]: 26%; blood pressure reduction effect compared with Azilsartan medoxomil [1, 5]: obviously superior to that of the Azilsartan medoxomil positive drug; lasting time of the blood pressure reduction effect compared with Azilsartan medoxomil [1, 5]: close to that of Azilsartan medoxomil; inhibition in vivo at 0.5 mg/kg [2, 9]: 20 ± 6%; inhibition in vivo at 1 mg/kg [2, 13]: 18 ± 4%; inhibition in vivo at 2 mg/kg [2, 17]: 29 ± 2%; blood pressure reduction effect compared with Azilsartan medoxomil ([2]; result in words): obviously superior to that of the Azilsartan medoxomil positive drug; reduction effects on the heart rate of SHR rats [2, 18]: significant reduction effects on the heart rate; change in vivo at 2 mg/kg [3]: 8%"
CCOc1nc2cccc(C(=O)OCOC(=O)OCc3no[n+]([O-])c3C)c2n1Cc1ccc(-c2ccccc2-c2noc(=O)[nH]2)cc1 [QR01020],-15 ± 3%,25 ± 4.3%,-28 ± 6%,34 ± 6.8%,-25 ± 8%,48 ± 2.6%,19 ± 6.8%,18 ± 6.9%,21 ± 4.6%,30 ± 5.5%,32 ± 8.3%,35 ± 6.2%,36 ± 5.3%,42 ± 7.5%,43 ± 7%,2.8 ± 5.3%,3.9 ± 4.3%,5.6 ± 3.2%,-1 ± 4%,-7 ± 3%,"blood pressure reduction at 24 hours after the administration [1, 4]: 15%; blood pressure reduction effect compared with Azilsartan medoxomil [1, 5]: obviously superior to that of the Azilsartan medoxomil positive drug; lasting time of the blood pressure reduction effect compared with Azilsartan medoxomil [1, 5]: close to that of Azilsartan medoxomil; inhibition in vivo at 0.5 mg/kg [2, 9]: 16 ± 4%; inhibition in vivo at 1 mg/kg [2, 13]: 25 ± 3%; inhibition in vivo at 2 mg/kg [2, 17]: 18 ± 5%; reduction effects on the heart rate of SHR rats [2, 18]: significant reduction effects on the heart rate; change in vivo at 2 mg/kg [3]: 3%"
CCOc1nc2cccc(C(=O)OC(C)OC(=O)OCc3no[n+]([O-])c3C)c2n1Cc1ccc(-c2ccccc2-c2noc(=O)[nH]2)cc1 (stereo not drawn) [QR01021],-6 ± 5%,15 ± 2.1%,-3 ± 6%,28 ± 4.5%,-12 ± 5%,32 ± 5.2%,23 ± 6.4%,24 ± 4.1%,25 ± 5%,42 ± 7.7%,40 ± 3.8%,44 ± 5.1%,44 ± 6%,44 ± 8.7%,46 ± 5.9%,2.7 ± 3.2%,3.9 ± 3.8%,2.8 ± 3.1%,-4 ± 3%,-2 ± 5%,"blood pressure reduction effect compared with Azilsartan medoxomil [1, 5]: close to that of Azilsartan medoxomil; blood pressure reduction effect compared with Azilsartan medoxomil ([2]; result in words): obviously superior to that of the Azilsartan medoxomil positive drug; change in vivo at 2 mg/kg [3]: -1 ± 3%"
